Test results as given in patent US20150045313A1, “Ectoparasiticidal Methods and Formulations” (Eli Lilly and Company, priority 2009, published 2015).
Like-named read-outs stand apart in the source and are kept apart here.

Key:
Cat Flea = experiment: Flea Contact Assay (FCA); settings: Cat Flea
Method: Flea Contact Assay (FCA)/Cat Flea: Test material is formulated in acetone at the desired exposure concentration and doubling dilutions performed to obtain a total of 10 testing levels. Approximately 0.05 ml of formulated material is dispensed into the bottom of a test tube containing a small amount of dog hair. Acetone is allowed to evaporate under a fume hood overnight. Approximately 10 mixed-sex adult cat flea are anesthetized using carbon dioxide and dispensed into each tube. Tubes are sealed using a ventilated plastic cap and incubated at 27° C. and 75-80% relative humidity. […] Nonlinear regression is used to model dose-mortality relationship and obtain relative potency (LD50) data compared to contemporaneous controls (acetone-only or fipronil).

House Fly = experiment: Adult House Fly Assay (AhsF); parameters: species or system Musca domestica; settings: 24 h, read-out: Potency (24 h EC50 μM)
Method: Adult Stable or House Fly Assay (ASF, AhsF). This assay is conducted essentially as described in White, W. H., S. M. Bauer, X. Zhao et al., Comparison of in vitro and in vivo ectoparasiticide activity of an experimental benzimidazole-carbamate with permethrin and amitraz, J. Med. Entomol. 42, 207-211 (2005); and White, W. H., C. M. McCoy, J. A. Meyer et al., Knockdown and mortality comparisons among spinosad-, imidacloprid-, and methomyl-containing baits against susceptible Musca domestica (Diptera: Muscidae) under laboratory conditions, J. Econ. Entomol. 100, 155-163 (2007).
Test material is formulated in DMSO at 10 mM. Doubling dilutions in like solvent are made to yield 10 testing levels. Materials are diluted in either bovine serum (stable flies) or 5% glucose solution (house flies) to obtain desired exposure concentrations from 200-0.39 μM. Approximately 3 ml of diluted test material is placed into a test tube (n=3 per test level) and a dental wick is used to absorb fluid. One dental wick is placed into a small weigh boat inside of a 100 mm Petri dish. Approximately 10 mixed-sex adult flies are anesthetized using carbon dioxide and counted into each dish. Dishes are incubated at 27° C. and 50-70% relative humidity. Flies recover from anesthesia and feed on compound-soaked dental wicks. After 24 h, live/dead flies are enumerated. Nonlinear regression is used to model dose-mortality relationship and obtain relative potency (LD50) data compared to contemporaneous controls (solvent-only or permethrin).

Lone Star Tick = experiment: Larval Packet Test (LPT); settings: Lone Star Tick larvae, 24 h
Method: Larval Packet Test (LPT)/Ticks: Test material is formulated in a 2:1 ratio of trichloroethylene: olive oil. Tissue biopsy bags are saturated with 1 ml of formulated material (n=3 per test level), and bags are allowed to dry under a fume hood for at least 2 hours. Approximately 50-100 larval-stage ticks are placed into each bag, and the bag is sealed using a plastic dialysis clip and incubated for 24 h at 27° C. and 95% relative humidity. Bags are then opened, and live/dead ticks are enumerated. Nonlinear regression is used to model dose-mortality relationship and obtain relative potency (LD50) data compared to contemporaneous controls (solvent-only or fipronil).

Boophilus annulatus = experiment: Whole-body spray treatment of Boophilus annulatus infestations on cattle; format: in vivo; parameters: residual efficacy, mean percentage control of the IF, Week 3 / residual efficacy, mean percentage control of the IF, Week 4: concentration or dose not given beside the values; residual efficacy, mean percentage control of the IF, Week 2: tested at 0.025% (250 ppm)
Method: C) Efficacy Testing and comparison of topically applied spinetoram with spinosad for the treatment of Boophilus annulatus infestations on cattle. Technical spinetoram and technical spinosad both formulated as 25 g/L suspension concentrate formulations similar to commercial Elector. Stability assays (HPLC and LPT bioassays) were conducted to confirm potency over extended periods of time (5 weeks) at cool and shelf-temperatures. Cattle were pre-infested 21 d prior to treatment with larval-stage B. annulatus ticks resulting the presence of very high numbers of all three life-stages of this tick at the time of treatment. Test materials were diluted to 0.025% (250 ppm) and applied to cattle as whole-body topical sprays in a volume of 10 L per animal. There were a total of six animals per treatment group (n=6). Animals were housed in covered stalls under ambient conditions of temperature and humidity. Engorged, detached adult female ticks were retrieved from animals in each stall on a daily basis. Egg masses were weighed and eggs were set for hatching to assess viability. Efficacy was measured in terms of total numbers of female ticks per animal and index of fecundity (IF).
Means were tested by General Linear Model (GLM), 1-way ANOVA. Differences (P<0.05) among means were separated using Tukey's all pairwise comparison. Means within the same column followed by different letters were significant at the P<0.05 level.
Means were tested by General Linear Model (GLM), 2-way ANOVA with parasitic life stage and treatment group as main effects. NS denotes not significant.

[1] = test system: Horn Fly (Haematobia irritans); experiment: Cattle Ectoparasiticide Test, pour-on or spray against horn flies; format: in vivo; settings: cattle, Initial
From the text: Cattle Ectoparasiticide Test (CET)/Horn Fly (Haematobia irritans) and/or Adult Tick (Amblyomma americanum): Cattle are housed in environmentally controlled rooms, 1 or 2 animals per room that have screened doors and ventilation system to prevent fly escape. Following treatment application, a defined number of horn flies are released into each room (typically at or above economic threshold of 200 flies per animal). After defined periods of time, the numbers of live horn flies remaining on animals are enumerated. If a combination horn fly and tick experiment is conducted, adult lone star ticks are placed into surgical stockinette enclosures that are glued onto the backs of cattle. Cattle are restrained in a modified head gate within environmentally controlled rooms. Horn flies may be enumerated, followed by determination of the numbers of dead ticks inside of containment units. Typically there are 2 containment units per animal and at least 2 animals per treatment group.
B) Therapeutic and residual efficacy testing of spinetoram and Elector against horn flies when applied topically to cattle as a pour-on or topical spray. Spinetoram (120 g/L), Elector (25 g/L spinosad) as described previously were used. Test material was applied to animals as either a whole-body topical spray or neat pour-on. Spinetoram was diluted in water to 25 g/L prior to application as a pour-on. Both materials were diluted in water to 0.04% (400 ppm) for application as a whole-body spray in a total volume of 1 L per animal. There were a total of six animals per treatment group (n=6) plus six negative control animals. Beef and dairy cattle were used. Following treatments, horn flies were released into rooms harboring cattle. Live flies were enumerated 24 h following challenges.

[2] = cattle, 0.025% AI whole-body spray, mean ± SD

O=[N+]([O-])NC1=NCCN1Cc1ccc(Cl)nc1 [Imidacloprid, imidacloprid]
Potency (EC50 ng/cm^2) 24 h (Cat Flea): 11.59 ng/cm^2
Potency (EC50 ng/cm^2) 48 h (Cat Flea): 7.737 ng/cm^2

N#Cc1nn(-c2c(Cl)cc(C(F)(F)F)cc2Cl)c(N)c1[S+]([O-])C(F)(F)F (stereo not drawn) [Fipronil, fipronil]
EC50 (House Fly; Musca domestica): 0.97 µM
Potency (EC50 ng/cm^2) 24 h (Cat Flea): 43.56 ng/cm^2
Potency (EC50 ng/cm^2) 48 h (Cat Flea): 22.18 ng/cm^2

spinosad
Potency (EC50) (Lone Star Tick): 189.6 ppm
initial/knockdown activity against B. annulatus (Boophilus annulatus; cattle, 0.025% AI): poor
Number ♀♀ Ticks per Calf (Boophilus annulatus; [2]): 2423 ± 311 a
Total Index of Fecundity (IF) (Boophilus annulatus; [2]): 289 ± 40.1 a
Percentage Control of the IF (Boophilus annulatus; cattle, 0.025% AI whole-body spray, therapeutic efficacy): 27.6 ± 10.0 a %
Percentage control, Adult (Boophilus annulatus; parasitic life stage adult, 0.025% AI): 18.5 ± 13.0%
Percentage control, Larval (Boophilus annulatus; parasitic life stage larva, 0.025% AI): 33.1 ± 16.6%
Percentage control, Nymph (Boophilus annulatus; parasitic life stage nymph, 0.025% AI): 32.9 ± 10.8%
residual efficacy, mean percentage control of the IF, Week 1 (Boophilus annulatus; ticks infested as larvae Week 1 after treatment): 97.6 ± 2.1%
residual efficacy, mean percentage control of the IF, Week 2 (Boophilus annulatus; ticks infested as larvae Week 2 after treatment): 98.5 ± 1.2%
residual efficacy, mean percentage control of the IF, Week 3 (Boophilus annulatus; ticks infested as larvae Week 3 after treatment): 89.4 ± 6.2%
residual efficacy, mean percentage control of the IF, Week 4 (Boophilus annulatus; ticks infested as larvae Week 4 after treatment): 89.7 ± 4.8%
GM percent horn fly reduction after 24 hrs, Pour-on ([1]; pour-on 2 mg/kg): 99.9%
GM percent horn fly reduction after 24 hrs, Spray ([1]; whole-body spray 0.04% AI): 100%
EC50 (House Fly; House Fly): 12 µM
Potency (EC50 ng/cm^2) 24 h (Cat Flea): 3.084 ng/cm^2
Potency (EC50 ng/cm^2) 48 h (Cat Flea): 1.500 ng/cm^2

CC1(C)C(C=C(Cl)Cl)C1C(=O)OCc1cccc(Oc2ccccc2)c1 (stereo not drawn) [Permethrin, permethrin]
Potency (EC50 ng/cm^2) 24 h (Cat Flea): 63.30 ng/cm^2
Potency (EC50 ng/cm^2) 48 h (Cat Flea): 0.1580 ng/cm^2
